Experimental data published in patent US20230075856A1, “CYCLIC SULFAMIDE COMPOUNDS FOR TREATMENT OF HBV” (Assembly Biosciences, Inc., priority 2018, published 2023).

system: HBV viral load production from HepAD38 cells; assay: Viral production from HepAD38 cells: viral load in supernatant by qPCR of the HBV core sequence; format: cell-based; conditions: 5 days incubation, qPCR of supernatant HBV DNA vs DMSO control, read-out: viral load lowering EC50 (Activity)
Summary of the method: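 HepAD38 cells seeded at 50,000/well in tetracycline-free medium with 2% FBS, treated with compounds (final top concentration 10 μM) for 5 days at 37 °C. Supernatant HBV DNA quantified by TaqMan qPCR of core sequence against HBV DNA standards, relative to DMSO controls; EC50 by four-parameter logistic fit.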

SMILES	EC50
CN1C(C(=O)Nc2ccc(F)c(Cl)c2)CC(C(=O)NCc2cnc(C(F)(F)F)s2)NS1(=O)=O (single isomer, unassigned) [Compound 498-ISOMER-B, N3-(3-chloro-4-fluoro-phenyl)-2-methyl-1,1-dioxo-N5-[[2-(trifluoromethyl)thiazol-5-yl]methyl]-1,2,6-thiadiazinane-3,5-dicarboxamide]	50 to 100 nM
Cc1c(CNC(=O)C2CC(C(=O)Nc3ccc(F)c(Cl)c3)N(C)S(=O)(=O)N2)cnn1C (single isomer, unassigned) [Compound 740-ISOMER-B, N3-(3-chloro-4-fluoro-phenyl)-N5-[(1,5-dimethylpyrazol-4-yl)methyl]-2-methyl-1,1-dioxo-1,2,6-thiadiazinane-3,5-dicarboxamide]	100 to 10000 nM
CN1C(C(=O)Nc2ccc(F)c(Cl)c2)CC(C(=O)NCc2csc(-c3ccc(OCCN4CCCCC4)cc3)n2)NS1(=O)=O (single isomer, unassigned) [Compound 957-ISOMER-B, N3-(3-chloro-4-fluoro-phenyl)-2-methyl-1,1-dioxo-N5-[[2-[4-[2-(1-piperidyl)ethoxy]phenyl]thiazol-4-yl]methyl]-1,2,6-thiadiazinane-3,5-dicarboxamide]	100 to 10000 nM
CN1C(C(=O)Nc2ccc(F)c(Cl)c2)CC(C(=O)NC2CCN(c3ccnc(-c4ccccc4)c3)CC2)NS1(=O)=O (single isomer, unassigned) [1050-ISOMER-B, N3-(3-chloro-4-fluoro-phenyl)-2-methyl-1,1-dioxo-N5-[1-(2-phenyl-4-pyridyl)-4-piperidyl]-1,2,6-thiadiazinane-3,5-dicarboxamide]	< 50 nM
Cc1cn(-c2ccc(F)cc2)nc1CNC(=O)C1CC(C(=O)Nc2ccc(F)c(Cl)c2)N(C)S(=O)(=O)N1 (single isomer, unassigned) [1141-ISOMER-B, N3-(3-chloro-4-fluoro-phenyl)-N5-[[1-(4-fluorophenyl)-4-methyl-pyrazol-3-yl]methyl]-2-methyl-1,1-dioxo-1,2,6-thiadiazinane-3,5-dicarboxamide]	100 to 10000 nM
COc1ccc(CNC(=O)C2CC(C(=O)Nc3ccc(F)c(Cl)c3)N(C)S(=O)(=O)N2)cc1 (single isomer, unassigned) [Compound 717-ISOMER-B, N3-(3-chloro-4-fluoro-phenyl)-N5-[(4-methoxyphenyl)methyl]-2-methyl-1,1-dioxo-1,2,6-thiadiazinane-3,5-dicarboxamide]	50 to 100 nM
CC(C)OC(=O)N1CCC(NC(=O)C2CC(C(=O)Nc3ccc(F)c(Cl)c3)N(C)S(=O)(=O)N2)CC1 (single isomer, unassigned) [Compound 766-ISOMER-B, isopropyl 4-[[5-[(3-chloro-4-fluoro-phenyl)carbamoyl]-6-methyl-1,1-dioxo-1,2,6-thiadiazinane-3-carbonyl]amino]piperidine-1-carboxylate]	50 to 100 nM

same assay, conditions: Hepatitis B virus, HePAD38, 120 h, 5 days incubation, qPCR of supernatant HBV DNA vs DMSO control, read-out: viral load lowering EC50 (Activity)

SMILES	EC50
COc1ccc(CNC(=O)C2CC(C(=O)Nc3ccc(F)c(Cl)c3)N(C)S(=O)(=O)N2)cc1 (stereo not shown) [Compound 717, N3-(3-chloro-4-fluoro-phenyl)-N5-[(4-methoxyphenyl)methyl]-2-methyl-1,1-dioxo-1,2,6-thiadiazinane-3,5-dicarboxamide]	< 50 nM
CN1C(C(=O)Nc2ccc(F)c(Cl)c2)CC(C(=O)NC2CCOCC2)NS1(=O)=O (stereo not shown) [Compound 738]	50 to 100 nM
Cc1cccnc1N1CCC(NC(=O)C2CC(C(=O)Nc3ccc(F)c(Cl)c3)N(C)S(=O)(=O)N2)CC1 (stereo not shown) [Compound 1074]	< 50 nM
COc1ccc(-c2ncc(CNC(=O)C3CC(C(=O)Nc4ccc(F)c(Cl)c4)N(C)S(=O)(=O)N3)s2)cc1 (stereo not shown) [Compound 932]	< 50 nM
Cc1nc(-c2ccccc2F)sc1CNC(=O)C1CC(C(=O)Nc2ccc(F)c(Cl)c2)N(C)S(=O)(=O)N1 (single isomer, unassigned) [1016-ISOMER-B, N3-(3-chloro-4-fluoro-phenyl)-N5-[[2-(2-fluorophenyl)-4-methyl-thiazol-5-yl]methyl]-2-methyl-1,1-dioxo-1,2,6-thiadiazinane-3,5-dicarboxamide]	50 to 100 nM
Cc1cn(-c2ccccc2F)nc1CNC(=O)C1CC(C(=O)Nc2ccc(F)c(Cl)c2)N(C)S(=O)(=O)N1 (stereo not shown) [Compound 1142]	< 50 nM
CN1C(C(=O)Nc2ccc(F)c(Cl)c2)CC(C(=O)NCCCc2ccccc2)NS1(=O)=O (stereo not shown) [Compound 726]	50 to 100 nM
CN1C(C(=O)Nc2ccc(F)c(Cl)c2)CC(C(=O)NCc2cc(-c3ccc(F)cc3)n(C)n2)NS1(=O)=O (stereo not shown) [Compound 1151]	< 50 nM
CN1C(C(=O)Nc2ccc(F)c(Cl)c2)CC(C(=O)NCc2sc(-c3ccccc3F)nc2C(F)(F)F)NS1(=O)=O (single isomer, unassigned) [1082-ISOMER-A, N3-(3-chloro-4-fluoro-phenyl)-N5-[[2-(2-fluorophenyl)-4-(trifluoromethyl)thiazol-5-yl]methyl]-2-methyl-1,1-dioxo-1,2,6-thiadiazinane-3,5-dicarboxamide]	< 50 nM
CN1C(C(=O)Nc2ccc(F)c(Cl)c2)CC(C(=O)Nc2ccc(-c3ccccc3)cc2)NS1(=O)=O (stereo not shown) [Compound 711]	100 to 10000 nM
CN1C(C(=O)Nc2ccc(F)c(Cl)c2)CC(C(=O)NCc2ccccc2Br)NS1(=O)=O (stereo not shown) [Compound 821]	< 50 nM
Cc1cn(-c2ccccc2)nc1CNC(=O)C1CC(C(=O)Nc2ccnc(Cl)c2)N(C)S(=O)(=O)N1 (stereo not shown) [Compound 1135]	< 50 nM
